Measured values taken from patent US20230117470A1, “SUBSTITUTED PYRAZOLE COMPOUNDS AS TOLL RECEPTOR INHIBITORS” (BRISTOL-MYERS SQUIBB COMPANY, priority 2019, published 2023).

Columns and labels:
Format in all cases: cell-based
human TLR7 = molecular target: T1, human TLR7 (Homo sapiens, UniProt Q9NYK1); assay: TLR7 inhibition reporter assay (HEK-Blue cells, SEAP reporter, gardiquimod stimulation); details: HEK-Blue cells overexpressing human TLR7, SEAP reporter, gardiquimod 7.5 μM
T1 construct: host or cells: HEK-Blue cells
T1 sequence (Q9NYK1 27-1049): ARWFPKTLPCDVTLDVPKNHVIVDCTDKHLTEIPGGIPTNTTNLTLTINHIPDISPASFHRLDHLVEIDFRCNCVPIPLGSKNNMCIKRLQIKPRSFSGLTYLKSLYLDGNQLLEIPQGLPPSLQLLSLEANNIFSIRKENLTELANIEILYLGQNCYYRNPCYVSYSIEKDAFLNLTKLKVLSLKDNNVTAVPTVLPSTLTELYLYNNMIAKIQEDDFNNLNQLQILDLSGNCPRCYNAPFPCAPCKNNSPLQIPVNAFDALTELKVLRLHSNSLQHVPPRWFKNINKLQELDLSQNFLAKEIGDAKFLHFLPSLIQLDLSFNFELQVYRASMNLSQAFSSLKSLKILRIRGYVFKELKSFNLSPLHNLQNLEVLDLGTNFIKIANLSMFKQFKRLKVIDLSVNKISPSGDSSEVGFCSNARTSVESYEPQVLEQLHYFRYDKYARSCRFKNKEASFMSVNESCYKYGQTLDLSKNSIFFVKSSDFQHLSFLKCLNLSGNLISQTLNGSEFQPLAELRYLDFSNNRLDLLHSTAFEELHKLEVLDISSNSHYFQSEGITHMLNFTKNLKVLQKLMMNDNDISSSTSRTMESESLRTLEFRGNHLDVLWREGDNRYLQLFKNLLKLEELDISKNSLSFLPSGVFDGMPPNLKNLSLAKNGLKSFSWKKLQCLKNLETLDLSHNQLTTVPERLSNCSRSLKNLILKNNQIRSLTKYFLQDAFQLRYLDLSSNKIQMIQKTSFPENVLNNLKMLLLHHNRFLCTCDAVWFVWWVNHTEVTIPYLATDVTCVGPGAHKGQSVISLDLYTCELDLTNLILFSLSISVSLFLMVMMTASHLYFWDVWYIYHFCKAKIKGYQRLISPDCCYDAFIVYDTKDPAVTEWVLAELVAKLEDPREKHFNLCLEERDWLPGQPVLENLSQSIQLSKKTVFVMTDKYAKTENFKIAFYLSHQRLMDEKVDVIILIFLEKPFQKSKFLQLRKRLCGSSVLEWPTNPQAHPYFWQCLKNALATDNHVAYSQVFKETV
Procedure, shortened: (§1)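 Percent inhibition of agonist-induced SEAP, set between agonist+DMSO wells and known-inhibitor wells, after 22 h at 37° C. Compounds (0.05 nM-50 μM final) were added 30 min at room temperature before ligand: gardiquimod 7.5 μM for TLR7, R848 15.9 μM for TLR8, ODN2006 5 nM for TLR9. Human receptors overexpressed in HEK-Blue reporter cells.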

human TLR9 = molecular target: T2, human TLR9 (Homo sapiens, UniProt Q9NR96); assay: TLR9 inhibition reporter assay (HEK-Blue cells, SEAP reporter, ODN2006 stimulation); details: HEK-Blue cells overexpressing human TLR9, SEAP reporter, ODN2006 5 nM
T2 construct: host or cells: HEK-Blue cells
T2 sequence (Q9NR96 26-1032): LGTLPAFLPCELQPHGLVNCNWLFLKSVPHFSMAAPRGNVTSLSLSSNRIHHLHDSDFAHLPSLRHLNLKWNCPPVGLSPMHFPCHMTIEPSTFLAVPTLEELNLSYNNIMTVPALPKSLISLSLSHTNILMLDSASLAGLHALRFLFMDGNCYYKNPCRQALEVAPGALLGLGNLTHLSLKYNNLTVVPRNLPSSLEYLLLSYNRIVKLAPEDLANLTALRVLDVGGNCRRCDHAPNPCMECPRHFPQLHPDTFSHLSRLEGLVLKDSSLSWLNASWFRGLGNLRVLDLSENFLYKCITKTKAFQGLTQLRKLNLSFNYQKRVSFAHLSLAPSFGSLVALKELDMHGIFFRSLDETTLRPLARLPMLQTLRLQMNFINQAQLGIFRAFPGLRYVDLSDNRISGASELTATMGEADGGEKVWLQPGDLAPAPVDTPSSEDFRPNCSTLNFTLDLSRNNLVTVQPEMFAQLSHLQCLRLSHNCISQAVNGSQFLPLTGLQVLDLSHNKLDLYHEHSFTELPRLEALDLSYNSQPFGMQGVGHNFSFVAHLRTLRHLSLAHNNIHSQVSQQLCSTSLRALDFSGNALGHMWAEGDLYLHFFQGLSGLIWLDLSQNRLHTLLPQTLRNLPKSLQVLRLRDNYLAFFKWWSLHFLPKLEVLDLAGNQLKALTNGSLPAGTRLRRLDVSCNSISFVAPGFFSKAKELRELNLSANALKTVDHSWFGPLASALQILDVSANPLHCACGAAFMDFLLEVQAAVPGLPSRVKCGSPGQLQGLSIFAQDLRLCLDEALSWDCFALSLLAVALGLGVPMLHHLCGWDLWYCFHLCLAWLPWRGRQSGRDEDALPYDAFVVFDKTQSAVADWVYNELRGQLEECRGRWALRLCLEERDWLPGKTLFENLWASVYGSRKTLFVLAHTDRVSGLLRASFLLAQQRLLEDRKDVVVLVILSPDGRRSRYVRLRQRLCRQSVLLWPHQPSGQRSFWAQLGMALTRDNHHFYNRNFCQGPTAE
Procedure, shortened: as §1

human TLR8 = molecular target: T3, human TLR8 (Homo sapiens, UniProt Q9NR97); assay: TLR8 inhibition reporter assay (HEK-Blue cells, SEAP reporter, R848 stimulation); details: HEK-Blue cells overexpressing human TLR8, SEAP reporter, R848 15.9 μM
T3 construct: host or cells: HEK-Blue cells
T3 sequence (Q9NR97 27-1041): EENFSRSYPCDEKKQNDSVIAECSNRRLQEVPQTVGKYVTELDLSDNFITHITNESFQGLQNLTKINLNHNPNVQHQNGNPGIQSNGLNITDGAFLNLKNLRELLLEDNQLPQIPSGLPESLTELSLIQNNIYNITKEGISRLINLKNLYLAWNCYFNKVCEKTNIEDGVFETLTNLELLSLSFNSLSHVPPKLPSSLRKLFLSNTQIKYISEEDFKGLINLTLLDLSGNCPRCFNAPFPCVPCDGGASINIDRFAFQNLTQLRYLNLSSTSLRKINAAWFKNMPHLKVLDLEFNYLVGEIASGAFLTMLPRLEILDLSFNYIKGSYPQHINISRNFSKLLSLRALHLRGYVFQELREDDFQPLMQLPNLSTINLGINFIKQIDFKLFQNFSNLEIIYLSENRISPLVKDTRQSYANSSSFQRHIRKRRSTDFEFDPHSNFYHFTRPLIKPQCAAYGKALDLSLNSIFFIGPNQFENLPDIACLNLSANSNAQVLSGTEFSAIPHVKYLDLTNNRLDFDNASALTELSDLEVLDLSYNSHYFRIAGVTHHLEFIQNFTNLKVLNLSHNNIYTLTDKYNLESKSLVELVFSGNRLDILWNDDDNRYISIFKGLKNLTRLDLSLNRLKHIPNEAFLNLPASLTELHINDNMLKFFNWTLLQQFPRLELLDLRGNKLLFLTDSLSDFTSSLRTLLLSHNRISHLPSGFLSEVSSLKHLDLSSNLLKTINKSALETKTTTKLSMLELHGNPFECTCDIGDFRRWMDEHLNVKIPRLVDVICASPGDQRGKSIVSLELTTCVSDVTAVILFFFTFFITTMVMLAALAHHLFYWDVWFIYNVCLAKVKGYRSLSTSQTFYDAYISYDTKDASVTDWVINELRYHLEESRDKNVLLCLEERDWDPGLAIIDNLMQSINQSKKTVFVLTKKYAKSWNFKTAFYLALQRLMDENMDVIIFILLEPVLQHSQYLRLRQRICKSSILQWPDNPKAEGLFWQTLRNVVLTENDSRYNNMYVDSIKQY
Procedure, shortened: as §1

Row | IC50 (human TLR7) [nM] | IC50 (human TLR9) [nM] | IC50 (human TLR8) [nM] | Structure (SMILES)
1 | 1.89 | 12000 | 15.6 | Cc1noc(C)c1CN[C@H]1CC[C@@H](NC(=O)c2n[nH]c(-c3cc(C)c4ncnn4c3)c2C(C)C)CC1 [Example 93]
2 | 48.2 | 9760 | 345 | Cc1cc(-c2[nH]nc(-c3ccc(N4CC(NC(C)C)C4)cc3)c2C(C)C)cn2ncnc12 [Example 409]
3 | 23.3 | 9580 | 23.7 | Cc1cc(-c2[nH]nc(C(=O)NC3CCN(CC(=O)N(C)C)CC3)c2C(C)C)cn2ncnc12 [Example 176, N-(1-(2-(dimethylamino)-2-oxoethyl)piperidin-4-yl)-4-isopropyl-5-(8-methyl-[1,2,4]triazolo [1,5-a]pyridin-6-yl)-1H-pyrazole-3-carboxamide]
4 | 50.3 | 37100 | 168 | COc1cc(-c2[nH]nc(-c3ccc(C4CCN(CC(=O)N(C)C)CC4)cn3)c2C(C)C)cn2ncnc12 [Example 389, 2-(4-(6-(4-isopropyl-5-(8-methoxy-[1,2,4]triazolo[1,5-a]pyridin-6-yl)-1H-pyrazol-3-yl)pyridin-3-yl)piperidin-1-yl)-N,N-dimethylacetamide]
5 | 7.1 | 4960 | 3.71 | Cc1cc(-c2[nH]nc(-c3ccc(C(N)=O)cc3)c2C(C)C)cn2ncnc12 [Example 229]
6 | 1.84 | 18500 | 3.05 | Cc1cc(-c2[nH]nc(C(=O)NCCN3CCOCC3)c2C(C)C)cn2ncnc12 [Example 3]
7 | 8.08 | 3430 | 8.27 | Cc1cc(-c2[nH]nc(C(=O)N(C)Cc3cccnc3)c2C(C)C)cn2ncnc12 [Example 17]
8 | 6.66 | 9250 | 4.21 | Cc1cc(-c2[nH]nc(C(=O)NC3CCN(C4CCOCC4)CC3)c2CC(F)(F)F)cn2ncnc12 [Example 201]
9 | 0.12 | 2980 | 1.37 | Cc1cc(-c2[nH]nc(C(=O)N[C@H]3CC[C@@H](NC4CCOCC4)CC3)c2C(C)C)cn2ncnc12 [Example 98]
10 | 22.9 | > 50000 | 44.5 | CCN1CCC(c2ccc(-c3n[nH]c(-c4cc(OC)c5ncnn5c4)c3C(C)C)nc2)CC1 [Example 347, 6-(3-(5-(1-ethylpiperidin-4-yl)pyridin-2-yl)-4-isopropyl-1H-pyrazol-5-yl)-8-methoxy-[1,2,4]triazolo[1,5-a]pyridine]
11 | 2.66 | 6910 | 17.5 | Cc1cc(-c2[nH]nc(C(=O)N[C@H]3CC[C@@H](NC(C)C)CC3)c2C(C)C)cn2ncnc12 [Example 85]
12 | 4.96 | 17500 | 26.3 | Cc1cc(-c2[nH]nc(C(=O)NCC3CN(C)CCO3)c2C(C)C)cn2ncnc12 (stereo not drawn) [Example 139]
13 | 17.5 | 47000 | 3.51 | CCCN1CCC(c2cnc(-c3n[nH]c(-c4cc(OC)c5ncnn5c4)c3C(C)C)cn2)CC1 [Example 383]
14 | 12.4 | 6440 | 1.38 | Cc1cc(-c2[nH]nc(-c3ncc(C4CCN(C(C)C)CC4)cn3)c2C(C)C)cn2ncnc12 [Example 370]
15 | 1.19 | 3610 | 36.7 | Cc1cc(-c2[nH]nc(C(=O)N[C@H]3CC[C@@H](NC(C)C(C)C)CC3)c2C(C)C)cn2ncnc12 (stereo partly drawn) [Example 99]
16 | 14 | 47700 | 3.29 | Cc1cc(-c2[nH]nc(-c3nc4c(s3)CN(CC(C)(C)O)CC4)c2C(C)C)cn2ncnc12 [Example 265]
17 | 9.47 | 44400 | 4.22 | Cc1cc(-c2[nH]nc(-c3ccc(C4CCN(CC(C)(C)C)CC4)cc3)c2C(C)C)cn2ncnc12 [Example 317]
18 | 2.3 | > 50000 | 0.59 | Cc1cc(-c2[nH]nc(-c3ccc(N)cc3)c2C(C)C)cn2ncnc12 [Example 233]
19 | 90.1 | 18800 | 5.67 | COCC(C)N[C@H]1CC[C@@H](NC(=O)c2n[nH]c(-c3cc(C)c4ncnn4c3)c2C(C)C)CC1 (stereo partly drawn) [Example 147]
20 | 93.6 | > 50000 | 481 | Cc1cc(-c2[nH]nc(-c3ncc(C4CCN(CC(C)(C)O)CC4)cn3)c2C(C)C)cn2ncnc12 [Example 390]
21 | 6.89 | > 50000 | 39 | Cc1cc(-c2[nH]nc(C(=O)N3CC(N(C)C)C3)c2C(C)C)cn2ncnc12 [Example 21]
22 | 44 | 25300 | 17.5 | Cc1cc(-c2[nH]nc(-c3ccc(NC(C)C)cc3)c2C(C)C)cn2ncnc12 [Example 244]
23 | 3.69 | 16100 | 8.06 | CCN(CCC#N)C(=O)c1n[nH]c(-c2cc(C)c3ncnn3c2)c1C(C)C [Example 20]
24 | 0.59 | 10400 | 0.89 | CCN1CCOC(CNC(=O)c2n[nH]c(-c3cc(C)c4ncnn4c3)c2C(C)C)C1 (stereo not drawn) [Example 140]
